This note sets out measurements from publication PMC8322037 (International Journal of Biological Macromolecules, 2021).

This experiment deals with SARS-CoV-2 3CL^pro (Severe acute respiratory syndrome coronavirus 2, UniProt P0DTD1). Nature of the experiment: biochemical. As to conditions: for Ratio (IC50 0.5 min / IC50 60 min): IC50 shift between 0.5 min and 60 min preincubation.

One may read the IC50 as the concentration that inhibits the measured activity by half.

Turning to `O=C1c2c(O)cc(O)cc2OC(c2ccc(O)c(O)c2)C1O` (centres unmarked) [Taxifolin], the “Ratio (IC50 0.5 min / IC50 60 min)” value is over 2.75. In addition, the IC50 (IC50 0.5 (min)) was over 200 µM. Also, the midpoint of inhibition (IC50 60 (min)), the IC50, lay at 72.7 µM. Where the note is “IC50 (three different doses), assayed by using three different doses, Fig. 4”, the IC50 is 10 to 100 µM.

Consider Myricitrin, for which the “Ratio (IC50 0.5 min / IC50 60 min)” value was determined as 8.32.
